Counter-ions that a name gives are not always drawn.
What was measured:
[1] = tested on: human A431 (human epidermoid carcinoma cell line) xenograft tumor; assay: Tumor inhibition on human A431 xenograft in nude mice; type: in vivo, BALB/C nude mice
Description: This was a preliminary study to compare Icotinib hydrochloride Crystalline Form I with erlotinib hydrochloride on inhibition of human A431 (human epidermoid carcinoma cell line) xenograft tumor.
Methods: The high EGFR-expressing human A431 (human epidermoid carcinoma cell line) cell line was selected for the xenograft study.
Tumor transplantation method: A431 human epidermoid cancer cells were inoculated subcutaneously in the right armpit of BALB/C nude mice to generate tumor nodules. These nodules were harvested, cut into 6 mm^3 blocks for routine inoculation and implanted into each mouse for the study. When tumors reached approximately 20 mm^3 in size (6-7 days), the animals were randomly divided into 4 groups of 6-9 animals/each group and body weights were recorded. The groups consisted of a control group (no drug treatment), an erlotinib hydrochloride treatment group (200 mg/kg) and high and low dose Icotinib hydrochloride Crystalline Form I treatment groups (200 and 50 mg/kg). Drugs were administered by oral gavage once daily; dosing frequency depended on the individual case for tumor growth. Tumor volume [tumor volume (V)=tumor size (L)×short diameter of tumor (S)^2/2] was measured using calipers once every 3 days. The animals were sacrificed 24-hour after the last drug administration and weighed. The tumor was removed and weighed to accurately calculate the tumor size. All group data was analyzed using the t test. If the p value was <0.05, it was considered to be statistically significant. Efficacy determination: tumor inhibition rate=[1−treatment group mean tumor weight (T)/control group mean tumor weight (C)]×100%

[2] = Pharmacokinetic study of the different crystalline forms and the free base in rats; type: in vivo, Wistar rats; conditions: fasted Wistar rats, oral suspension, dose equivalent to 35 mg/kg Icotinib hydrochloride, plasma
Method: Drugs and reagents: Icotinib (free base) and Icotinib hydrochloride crystalline forms I, II, III, and IV were ground to fine particles. The material content (purity) was not less than 99.0%. Sodium carboxymethyl cellulose was medical supply graded. Experimental animals: Wistar rats, male and female, 150-220 g each. Pharmaceutical preparation: Weigh the appropriate amount of each substance and add sodium carboxymethyl cellulose to 0.5%. Prepare a suspension at a final concentration of 3.5 mg/mL in water. Administration and sample collection: Each suspension was administered orally to fasted Wistar rats at a dose equivalent to 35 mg/kg Icotinib hydrochloride in a dose volume of 10 ml/kg. […] After purification, samples were analyzed by high performance liquid chromatography. The chromatographic conditions utilized C18-silane bonded silica as stationary phase, 0.02 mol/L of sodium dihydrogen phosphate in acetonitrile (40:60, using sodium hydroxide solution to adjust pH to 5.0) as the mobile phase and a detection wavelength of 334 nm.

Compound | body weight and appearance at experiment termination ([1]; A431 xenograft nude mice) | tumor inhibition rate ([1]; A431 xenograft, 200 mg/kg oral gavage once daily (later reduced to 100 mg/kg)) | animals died ([1]; after 5 days at 200 mg/kg) | The area under the concentration-time curve (0-infinity) [2] | The area under the concentration-time curve (0-t) [2]
C#Cc1cccc(Nc2ncnc3cc(OCCOC)c(OCCOC)cc23)c1 [erlotinib, Erlotinib Hydrochloride, reference compound] | lost weight and appeared sluggish | 77.6% | 3 of 8 |  | 
C#Cc1cccc(Nc2ncnc3cc4c(cc23)OCCOCCOCCO4)c1 [Free base, 4-[(3-ethynyl-phenyl)amino]-6,7-benzo-12-crown-quinazoline, reference compound] |  |  |  | 29.36 | 28.83
